In patent US20240299376A1, “METHOD OF TREATING A CONDITION USING A […] EFFECTIVE DOSE OF 1-(1-OXO-1,2-DIHYDROISOQUINOLIN-5-YL)-5-(TRIFLUOROMETHYL)-N-(2-(TRIFLUOROMETHYL)PYRIDIN-4-YL)-1H-PYRAZOLE-4-CARBOXAMIDE” (Janssen Pharmaceutica NV, priority 2021, published 2024):

Columns and labels:
[1] = tested on: panel of 91 tumor cell lines; assay: Growth inhibition across various cancer indications; assay type: cell-based; details: more than 18 tumor indications, no ABC-DLBCL lines
Text: The panel represents cancer cell lines from more than 18 different tumor indications, including breast, colon, lung, ovarian, and blood cancers.

[2] = tested on: OCI-LY3 cells; assay: Whole-gene transcriptomics; assay type: cell-based, human; details: OCI-LY3 (Myd88 and CARD11 mutations)
[3] = tested on: OCI-LY3 human DLBCL xenografts; assay: Antitumor efficacy in established OCI-LY3 human DLBCL xenografts; assay type: in vivo, NSG mice
Protocol: The human ABC-DLBCL cell line OCI-LY3 was obtained from Dr. Miguel A Piris, Hospital Universitario Marques de Valdecilla, Santander, Spain. The human ABC-DLBCL cell line OCI-LY-10 was obtained from University Hospital Network, Ontario Cancer Institute. OCY-LY3 cells were maintained at 37° C. in a humidified atmosphere (5% CO2, 95% air), in RPMI-1640 medium with GlutaMAX™, supplemented with 10% Fetal Bovine Serum (Heat Inactivated at 57° C., and 1% Penicillin-Streptomycin). Each mouse received 1×10^6 cells in serum-free RPMI-1640 medium or PBS with Matrigel basement matrix […] in a total volume of 0.2 mL. Cells were implanted SC in the right flank using a 1 ml syringe and a 26-gauge needle. The day of tumor implantation was designated as Day 0.
Tumor volume was calculated using the formula: tumor volume (mm^3)=(Dxd^2/2); where ‘D’ represents the larger diameter, and ‘d’ the smaller diameter of the tumor as determined by caliper measurements. Tumor volume data was graphically represented as the mean tumor volume±SEM.
Percent tumor growth inhibition (TGI) was defined as the difference between mean tumor volumes of the treated and control group, calculated as
where TVc is the mean tumor volume of a given control group and TVt is the mean tumor volume of the treatment group. As defined by National Cancer Institute criteria, ≥60% TGI is considered biologically significant.
Group tumor volumes are graphed as the mean+/−SEM. Mice were implanted SC on the right flank on Day 0.
For study 3, animals were randomly assigned into treatment groups, when the OCI-LY3 mean tumor volume was 164 mm^3 (Day 32 post-tumor cell implantation). Treatment was initiated on the day of randomization (Day 32). After 28 days of treatment on Day 60, serum was collected at 2, 4, and 12 hours post last dose for the bid treated groups or 2, 4 and 24 hours post last dose for qd treated groups in cohorts of 5 mice. Blood was collected from the retro-orbital sinus and submitted for bioanalytical analysis.

SMILES: O=C(Nc1ccnc(C(F)(F)F)c1)c1cnn(-c2cccc3c(=O)[nH]ccc23)c1C(F)(F)F [Compound A, 1-(1-oxo-1,2-dihydroisoquinolin-5-yl)-5-(trifluoromethyl)-N-[2-(trifluoromethyl)pyridin-4-yl]-1H-pyrazole-4-carboxamide]
- sensitivity of tumor cell lines (cell viability) [1]: no single cell lines showing sensitivity to Compound A up to 20 μM
- gene expression changes [2]: clear dose-dependent gene expression changes
- TGI ([3]; 1 mg/kg BID PO, 4 weeks, vs vehicle control): 37%
- TGI (%) at day 28 ([3]; 1 mg/kg, bid (Table 4)): 46%
- TGI ([3]; 3 mg/kg BID PO, 4 weeks, vs vehicle control): 19%
- TGI (%) at day 28 ([3]; 3 mg/kg, bid (Table 4)): 23%
- TGI ([3]; 10 mg/kg BID PO, 4 weeks, vs vehicle control): 53%
- mean TGI ([3]; 10 mg/kg BID, 3 independent OCI-LY3 antitumor efficacy studies): 60%
- TGI ([3]; 10 mg/kg BID, previous efficacy studies in the OCI-LY3 model): 51-76%
- TGI ([3]; 10 mg/kg, 8/16 hr split schedule instead of 12/12 hr): 57%
- TGI (%) at day 28 ([3]; 10 mg/kg, bid (Table 4)): 66%
- TGI ([3]; 30 mg/kg BID PO, 4 weeks, vs vehicle control): 72%
- TGI ([3]; 30 mg/kg BID, previous efficacy studies in the OCI-LY3 model): 60-86%
- TGI (%) at day 28 ([3]; 30 mg/kg, bid (Table 4)): 90%
- TGI ([3]; 60 mg/kg QD PO, 4 weeks, vs vehicle control): 57%
- TGI (%) at day 28 ([3]; 60 mg/kg, qd (Table 4)): 71%
- TGI ([3]; 100 mg/kg BID PO, 4 weeks, vs vehicle control): 72%
- TGI (%) at day 28 ([3]; 100 mg/kg, bid (Table 4)): 90%
- TGI ([3]; 100 mg/kg, previous efficacy studies in the OCI-LY3 model): 62-89%
- tolerability ([3]; 1 to 100 mg/kg (BID or QD), OCI-LY3 and OCI-LY10 xenograft models in NSG mice): well tolerated
- minimum efficacious dose ([3]; BID, OCI-LY3 model): 10 mg/kg
